Results taken from BindingDB's records for doi:10.1021/bi1006354 (Beactica, 2010).
Several values for one entry are separate records, joined by “and”; a condition that tells them apart may be missing. Equal values may be shown once.

Each compound was assayed against Acetylcholine-binding protein (Lymnaea stagnalis, UniProt P58154) (assay: Interaction Assay). Settings: pH 7.4; 25 °C.
Text: Interaction assay using AChBP.

Chain of Acetylcholine-binding protein (P58154 whole entry): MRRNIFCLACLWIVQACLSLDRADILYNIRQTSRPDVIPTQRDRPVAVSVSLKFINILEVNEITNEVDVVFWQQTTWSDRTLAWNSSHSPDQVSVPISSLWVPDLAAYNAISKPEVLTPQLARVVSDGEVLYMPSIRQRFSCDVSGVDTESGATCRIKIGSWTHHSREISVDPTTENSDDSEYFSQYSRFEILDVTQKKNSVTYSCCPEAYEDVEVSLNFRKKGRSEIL

Compound | Kd
CC(=O)OCC[N+](C)(C)C [2-acetoxyethyl(trimethyl)ammonium;perchlorate] | 458 nM and 3850 nM
O=C(N[C@@H]1C2CCN(CC2)C1Cc1cccnc1)c1cc2ccccc2o1 (stereo not given in full) [Quinuclidine analogue, 5] | 12.8 nM
CN(C)CCc1cccnc1 [Quinuclidine analogue, 1] | 4250 nM
N[C@@H]1C2CCN(CC2)C1Cc1cccnc1 (stereo not given in full) [Quinuclidine analogue, 2] | 345 nM
O=C(N[C@@H]1C2CCN(CC2)C1Cc1cccnc1)c1ccccc1 (stereo not given in full) [Quinuclidine analogue, 3] | 141 nM
